Assays:
[1] = inhibitors of NFkB activation in CF airway cells, SAR follow-up, KKLEB cells, panel, IL8 HTRF, NFkB-GFP (AID 651592); conditions: PAF/TNFa-induced NFkB-GFP / IL8 HTRF, CF-PAF assay;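 note: immortalized cystic fibrosis airway epithelial KKLEB cells with an NF-kB GFP reporter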
IL8 = assay: as above; conditions: PAF/TNFa-induced NFkB-GFP / IL8 HTRF, mean of runs, mean IC50 across panel replicates
[2] = molecular target: Interleukin-8 (Homo sapiens) (UniProt P10145); assay: as above; conditions: PAF/TNFa-induced NFkB-GFP / IL8 HTRF
Interleukin-8 (Homo sapiens), sequence (P10145 whole entry, looked up): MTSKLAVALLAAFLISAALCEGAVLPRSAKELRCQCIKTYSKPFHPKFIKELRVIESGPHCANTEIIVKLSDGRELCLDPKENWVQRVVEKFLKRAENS

[3] = mean of runs, mean IC50 across panel replicates

IC50 [1, 3] [µM] | IC50 ([1]; run 1) [µM] | IC50 ([1]; run 2) [µM] | IC50 ([1]; run 3) [µM] | IC50 ([1]; run 4) [µM] | IC50 ([1]; run 5) [µM] | IC50 ([1]; run 6) [µM] | IC50 (IL8; PAF-induced) [µM] | IC50 (IL8; TNFa-induced) [µM] | IC50 ([2]; IL8, PAF-induced, run 1) [µM] | IC50 ([2]; IL8, PAF-induced, run 2) [µM] | IC50 ([2]; IL8, PAF-induced, run 3) [µM] | IC50 ([2]; IL8, PAF-induced, run 4) [µM] | IC50 ([2]; IL8, PAF-induced, run 5) [µM] | IC50 ([2]; IL8, PAF-induced, run 6) [µM] | IC50 ([2]; IL8, TNFa-induced, run 1) [µM] | IC50 ([2]; IL8, TNFa-induced, run 2) [µM] | IC50 ([2]; IL8, TNFa-induced, run 3) [µM] | IC50 ([2]; IL8, TNFa-induced, run 4) [µM] | IC50 ([2]; IL8, TNFa-induced, run 5) [µM] | Compound | further results
4.12 | 3.91 | 4.12 | 4.31 | < 10 | < 10 | < 10 | 29.9 | 45.5 | > 66 | > 66 | 16.7 | < 10 | < 10 | 10.6 | > 66 | > 66 | > 66 | > 66 | > 66 | O=C(Nc1ccc(N2CCN(C(=O)c3ccccc3Cl)CC2)cc1)c1ccccc1 | IC50 ([2]; IL8, TNFa-induced, run 6): 8.88 µM
2.74 | 1.98 | 2.48 | 2.61 | 2.72 | 2.99 | 3.67 | 8.85 | 16.1 | 7.62 | 8.41 | 11.1 | 3.16 | 5.73 | 17 | 0.275 | 2.14 | 5.45 | > 66 | 8.3 | O=C(Nc1ccc(N2CCN(C(=O)c3ccccc3Cl)CC2)cc1)c1cncc(Br)c1 | IC50 ([2]; IL8, TNFa-induced, run 6): 14.3 µM
> 66 | > 66 | > 66 | > 66 | > 66 | > 66 | > 66 | > 66 | > 66 | > 66 | > 66 | > 66 | > 66 | > 66 | > 66 | > 66 | > 66 | > 66 | > 66 | > 66 | O=C(Nc1ccc(N2CCN(C(=O)c3ccccc3)CC2)cc1)c1ccccn1 | IC50 ([2]; IL8, TNFa-induced, run 6): > 66 µM
60 | > 66 | > 66 | > 66 | > 66 | > 66 | 30.1 | 14.6 | > 66 | 7.97 | 12.8 | 14.6 | 16.6 | 17 | 18.6 | > 66 | > 66 | > 66 | > 66 | > 66 | Cc1ccc(CNCc2cc3c(C(C)(C)C)nn(-c4ccccc4)c3[nH]c2=O)cc1 | IC50 ([2]; IL8, TNFa-induced, run 6): > 66 µM
> 66 | > 66 | > 66 | > 66 | > 66 | > 66 | > 66 | > 66 | > 66 | > 66 | > 66 | > 66 | > 66 | > 66 | > 66 | > 66 | > 66 | > 66 | > 66 | > 66 | O=C(Nc1ccc(N2CCN(C(=O)c3ccc(F)cc3)CC2)cc1)c1cc(Br)cc(Br)c1 | IC50 ([2]; IL8, TNFa-induced, run 6): > 66 µM
17.9 | 9.61 | 10.1 | 10.2 | > 66 | 0.52 | 10.8 | 0.228 | > 66 | 0.216 | 0.248 | 0.277 | 0.149 | 0.236 | 0.246 | > 66 | > 66 | > 66 | > 66 | > 66 | CCOc1ccc(NCc2cc3c(C(C)(C)C)nn(-c4ccc(Cl)cc4)c3[nH]c2=O)cc1 | IC50 ([2]; IL8, TNFa-induced, run 6): > 66 µM
25.5 | 12.8 | 20.1 | 22.3 | > 66 | 13 | 19 | 4 | > 66 | 2.61 | 3.3 | 3.37 | 4.49 | 4.57 | 5.68 | > 66 | > 66 | > 66 | > 66 | > 66 | CCOc1ccc(NCc2cc3c(C(C)(C)C)nn(-c4ccccc4)c3[nH]c2=O)cc1 | IC50 ([2]; IL8, TNFa-induced, run 6): > 66 µM
9.11 | 14.2 | 15.7 | 18.1 | 1.81 | 2.36 | 2.48 | 0.522 | 57.5 | 0.434 | 0.974 | 1.05 | 0.181 | 0.244 | 0.248 | > 66 | > 66 | > 66 | > 66 | > 66 | CCOc1ccc(NCc2cc3c(-c4ccc(F)cc4)nn(-c4ccccc4)c3[nH]c2=O)cc1 | IC50 ([2]; IL8, TNFa-induced, run 6): 14.8 µM
> 66 | > 66 | > 66 | > 66 | > 66 | > 66 | > 66 | > 66 | > 66 | > 66 | > 66 | > 66 | > 66 | > 66 | > 66 | > 66 | > 66 | > 66 | > 66 | > 66 | O=C(Nc1ccc(N2CCN(C(=O)c3ccccc3Cl)CC2)cc1)c1cc(Br)cc(Br)c1 | IC50 ([2]; IL8, TNFa-induced, run 6): > 66 µM
> 66 | > 66 | > 66 | > 66 | > 66 | > 66 | > 66 | > 66 | > 66 | > 66 | > 66 | > 66 | > 66 | > 66 | > 66 | > 66 | > 66 | > 66 | > 66 | > 66 | O=C(Nc1ccc(N2CCN(C(=O)c3ccc(F)cc3)CC2)cc1)c1ccccc1 | IC50 ([2]; IL8, TNFa-induced, run 6): > 66 µM
> 66 | > 66 | > 66 | > 66 | > 66 | > 66 | > 66 | > 66 | > 66 | > 66 | > 66 | > 66 | > 66 | > 66 | > 66 | > 66 | > 66 | > 66 | > 66 | > 66 | O=C(Nc1ccc(N2CCN(C(=O)c3ccc(F)cc3)CC2)cc1)c1ccccn1 | IC50 ([2]; IL8, TNFa-induced, run 6): > 66 µM
12.6 | 13 | 15.9 | 16.2 | 9.13 | 10.5 | 11.2 | 10.5 | > 66 | 10.3 | 13.9 | 14.1 | 7.93 | 8.32 | 8.5 | > 66 | > 66 | > 66 | > 66 | > 66 | CCOc1ccc(NCc2cc3c(C)nn(-c4ccccc4)c3[nH]c2=O)cc1 | IC50 ([2]; IL8, TNFa-induced, run 6): > 66 µM
42.9 | 17 | 20.7 | 21.9 | > 66 | > 66 | > 66 | 40.3 | > 66 | > 66 | > 66 | 7.51 | > 66 | > 66 | 36.4 | > 66 | > 66 | > 66 | > 66 | > 66 | O=C(Nc1ccc(N2CCN(C(=O)c3ccccc3)CC2)cc1)c1cccnc1 | IC50 ([2]; IL8, TNFa-induced, run 6): > 66 µM
43.9 | 21.5 | 21.6 | 22.5 | > 66 | > 66 | > 66 | > 66 | > 66 | > 66 | > 66 | > 66 | > 66 | > 66 | > 66 | > 66 | > 66 | > 66 | > 66 | > 66 | O=C(Nc1ccc(N2CCN(C(=O)c3ccc(F)cc3)CC2)cc1)c1cccc(Br)c1 | IC50 ([2]; IL8, TNFa-induced, run 6): > 66 µM
